Reference: US9815847B2 (Icahn School of Medicine at Mount Sinai, priority 2013, dated 2017)

How the values were obtained:
K562 = experiment: Cytotoxicity on K562 cancer cell line; type: cell-based; conditions: Homo sapiens; K562 chronic myelogenous leukemia; 96 h; 0.01-100 μM
Procedure: (§1) The effect of the compounds described herein on tumor cells was determined by the assay described by Latham et al., Oncogene 12:827-837 (1996). Tumor cells K562 (chronic myelogenous leukemia; leukemia cell line +ve for Bcr-Abl) or DU145 (prostate cancer) were plated in 12-well dishes at a cell density of 2.5×10^4 cells per well. The plated cells were treated 24 h. later with a DMSO solution of a compound as described herein at multiple concentrations ranging from 0.01 μM to 100 μM. The plates were examined 96 h. later under an inverted microscope, Olympus CK-2 using a 10× objective, and compound activity was noted by physical observation. When necessary, the total number of viable cells was determined by trypsinizing the wells and counting the number of viable cells, as determined by trypan blue exclusion, using a hemacytometer.

DU145 = experiment: Cytotoxicity on DU145 cancer cell line; type: cell-based; conditions: Homo sapiens, DU-145; DU145 prostate cancer; 96 h; 0.01-100 μM
Procedure: as §1

Structure (SMILES)	IC50 (K562) [nM]	IC50 (DU145) [nM]
Cn1ccc(Nc2nc(Nc3ccc4[nH]ccc4c3)ncc2/C=C/S(=O)(=O)c2ccc(F)cc2F)n1 [Compound 15s, (E)-5-{2-[(2,4-Difluorophenyl)sulfonyl]vinyl}-N^2-(1H-indol-5-yl)-N^4-(1-methyl-1H-pyrazol-3-yl)pyrimidine-2,4-diamine]	1000 to 25000	1000 to 25000
Cn1ccc(Nc2nc(Nc3ccc(N4CCOCC4)cc3)ncc2/C=C/S(=O)(=O)c2ccc(F)cc2F)n1 [Compound 15t, (E)-5-{2-[(2,4-Difluorophenyl)sulfonyl]vinyl}-N-(1-methyl-1H-pyrazol-3-yl)-N^2-(4-morpholinophenyl)pyrimidine-2,4-diamine]	1000 to 25000	1000 to 25000
Cn1ccc(Nc2nc(Nc3ccc4ncccc4c3)ncc2/C=C/S(=O)(=O)c2ccc(F)cc2F)n1 [Compound 15u, (E)-5-{2-[(2,4-Difluorophenyl)sulfonyl]vinyl}-N^4-(1-methyl-1H-pyrazol-3-yl)-N^2-(quinolin-6-yl)pyrimidine-2,4-diamine]	1000 to 25000	1000 to 25000
CCOC(=O)/C=C/c1cnc(Nc2ccc(N3CCN(C)CC3)cc2)nc1NC1CCCC1 [Compound 21, (E)-3-[4-(Cyclopentylamino)-2-{[4-(4-methylpiperazin-1-yl)phenyl]amino}pyrimidin-5-yl]acrylic acid ethyl ester]	< 1000	1000 to 25000
